Laboratory results taken from patent US5607967A, “Treatment of alzheimer's disease with 5-(tetradecyloxy)-2-furan carboxylic acid” (Merck & Co., Inc., priority 1994, dated 1997).

Assays:
[1] = system: Muscarinic receptor agonist (Pilocarpine) induced catalepsy; experiment: Pilocarpine induced catalepsy (Bar method); assay type: in vivo, rat; conditions: carrier pretreatment, 24 h later 16 mg/kg Pilocarpine
Description: Catalepsy was determined by a modification of the Bar method (Undie and Friedman, 1988). A steel bar, 1.1 cm in diameter and 50 cm long, was suspended at a height of 10 cm above the working surface. Three sides of the bench around the bar were walled off with brown cardboard, and the linings on the bench surface were selected to be of the same color with the cardboard walls. The animal's hind limbs were freely placed on the bench, the fail laid out to the back, and the forelimbs placed over the bar. The length of time a rat stayed up on the bar was noted up to a preset cut-off point of 120 s. The time was counted off upon observing any of the following actions: (1) the animal came off, placing its two forepaws on the bench, (2) the animal climbed onto or over the bar with both hind limbs, (3) the animal initiated locomotion along or around the bar. Subsequently, time readings were translated into scores by awarding a score of 1 for each successfully completed 5 s on the bar. For each observation time, catalepsy scores were averaged for all the animals in a group to give the Mean Score of the group at that observation time. Further, the scores for each animal at all the observation times were added to give the total score for that animal. The mean of this last group of numbers was called the Mean Total Score of the group.
Catalepsy scores were analyzed by computer in accordance with the statistical procedures outlined by Winer, B. J.: Statistical principles in experimental design. McGraw-Hill, New York, pp. 10-428, 1971. Generally, for a given set of comparisons, observations were subjected to an appropriate analysis of variance followed by two-tailed Dunnett or Student's t-tests to detect differences between treatment groups.
Rats were pretreated with 0.4 mg/kg TOFA or with carrier (S.C.). Twenty-four hours later, the rats were challenged with 16 mg/kg Pilocarpine, an agonist of the muscarinic cholinergic receptor, and the duration of catalepsy was monitored as described in Example 10.

[2] = target: T1, GR/PPAR chimeric receptor (Mus musculus, UniProt P23204); experiment: Ligand dependent transcription assay, GR/PPAR chimeric receptor with MMTV-luciferase reporter; assay type: cell-based
T1 construct: COS cells, MMTV-luciferase
T1 sequence (P23204 1-468): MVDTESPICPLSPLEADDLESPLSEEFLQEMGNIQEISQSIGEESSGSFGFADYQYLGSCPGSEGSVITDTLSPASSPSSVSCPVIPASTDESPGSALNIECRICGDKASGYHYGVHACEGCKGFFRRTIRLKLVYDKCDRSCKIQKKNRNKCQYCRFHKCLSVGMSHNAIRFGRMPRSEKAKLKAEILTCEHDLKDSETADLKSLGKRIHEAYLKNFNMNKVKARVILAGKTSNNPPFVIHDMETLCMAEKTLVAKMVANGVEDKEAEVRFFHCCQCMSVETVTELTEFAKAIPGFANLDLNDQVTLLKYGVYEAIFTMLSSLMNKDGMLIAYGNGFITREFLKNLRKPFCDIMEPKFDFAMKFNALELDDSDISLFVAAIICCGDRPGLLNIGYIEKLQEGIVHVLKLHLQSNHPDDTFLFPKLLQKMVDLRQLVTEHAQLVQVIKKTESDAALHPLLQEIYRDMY
T1 sequence (P06537 1-792 partner): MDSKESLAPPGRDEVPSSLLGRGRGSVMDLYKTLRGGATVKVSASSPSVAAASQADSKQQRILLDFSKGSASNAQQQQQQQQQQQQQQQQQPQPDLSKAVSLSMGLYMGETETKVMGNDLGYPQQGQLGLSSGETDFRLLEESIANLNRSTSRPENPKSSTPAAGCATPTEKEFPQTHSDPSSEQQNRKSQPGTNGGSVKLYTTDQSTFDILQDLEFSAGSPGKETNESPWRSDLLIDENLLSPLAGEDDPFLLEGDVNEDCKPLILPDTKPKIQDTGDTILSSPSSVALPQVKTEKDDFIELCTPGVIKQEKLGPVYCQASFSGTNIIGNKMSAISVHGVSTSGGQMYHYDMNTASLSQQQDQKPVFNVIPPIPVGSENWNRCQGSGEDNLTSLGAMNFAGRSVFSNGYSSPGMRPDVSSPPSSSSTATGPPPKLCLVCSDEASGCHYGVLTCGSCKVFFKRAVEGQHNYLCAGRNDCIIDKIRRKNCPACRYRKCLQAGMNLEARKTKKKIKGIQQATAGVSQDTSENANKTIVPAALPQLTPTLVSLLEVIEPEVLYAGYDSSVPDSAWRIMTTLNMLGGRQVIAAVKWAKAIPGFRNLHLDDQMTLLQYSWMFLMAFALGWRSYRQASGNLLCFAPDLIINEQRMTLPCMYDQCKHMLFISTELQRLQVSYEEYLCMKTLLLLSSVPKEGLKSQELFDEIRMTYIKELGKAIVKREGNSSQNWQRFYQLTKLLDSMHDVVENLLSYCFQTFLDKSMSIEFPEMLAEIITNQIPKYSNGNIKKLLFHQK
Description: (§1) Similar hybrid receptors GR/NER, GR/NUC and GR/PPAR, in identical expression plasmid backgrounds were prepared essentially as described for the construction of the GR/mPPAR and GR/NUC chimeric receptors in Schmidt et al., "Identification of a new member of the steroid hormone receptor superfamily that is activated by a peroxisome proliferator and fatty acids," Mol. Endocrinol., 6(10):1634-41, 1992, and in Boie et al., "Enantioselective activation of the peroxisome proliferator-activated receptor", J. Biol. Chem. 268(8):5530-4, 1993.
(§2) Briefly, the amino terminal portion of the mouse glucocorticoid receptor (mGR), that includes the DNA binding domain was fused to the putative ligand binding domains of the nuclear receptor NER, hNUC-I (Schmidt et al., 1992), mPPAR (Issenmann and Green, 1990) to form the respective chimeric receptors GR/NER, GR/NUC and GR/PPAR. The GR/NER chimeric receptor was constructed as described for the GR/NUC and GR/PPAR hybrid receptors (Schmidt et al., 1992; Boie et al). The cDNA sequences coding for amino acids Arg^155 and Glu^156 of the NER receptor were converted to the Xho I restriction site, that was later used for the ligation to the GR cDNA sequences that coded for the DNA binding domain. Thus, converting amino acid residues Arg^155 and Glu^156 of NER receptor to amino acid residues Ser^155 and His^156.
The ligand transcription assay mediated by GR/PPAR in COS cells was performed as described in Example 4. The cells were treated with TOFA and Cerulenin at 0.1, 1, 10 and 100 μM.

GR/NER chimeric receptor = experiment: Ligand dependent transcription assay, GR/NER chimeric receptor with MMTV-luciferase reporter; assay type: cell-based, human
Description: To search for putative ligands for the NER receptor, the chimeric receptor GR/NER was prepared. […] Chimeric receptors were prepared in which the amino terminal portion of the mouse glucocorticoid receptor (mGR) that includes the DNA binding domain was fused to the putative ligand binding domains of the nuclear receptor NER to form the respective chimeric receptor GR/NER. The cDNA sequences coding for amino acid residues Arg^155 and Glu^156 of the hNER receptor (Shinar et al., NER, a new member of a gene family encoding the steroid hormone nuclear receptor; GENE (in press) were convened to the Xho I restriction site, which site was later used for the ligation to the GR cDNA sequences that coded for the DNA binding domain. Thus, the amino acid residues Arg^155 and Glu^156 of the NER receptor were convened to amino acid residues Ser^155 and His^156.
The chimera was employed in ligand dependent transactivation assays with the reporter gene MMTV-luciferase, in which the luciferase cDNA is transcribed under the control of the MMTV promoter.
as §1, §2

PC12 cells = experiment: Neurite differentiation of PC12 cells; assay type: cell-based; conditions: NGF alone (100 ng/mL), 4 days
Description: To further study the influence of TOFA on the nervous system, we tested the effect of TOFA on the differentiation of PC12 cells. PC12 cells were plated at a density of approximately 100-200/mm^2 on collagen coated plates or dishes in RPMI medium supplemented with 10% horse serum, 5% fetal calf serum, […] streptomycin, 50 U/mL penicillin in a water saturated atmosphere of 95% air and 5% CO2, at 37° C. overnight. Medium was replaced with fresh RPMI containing 1.5% serum, 100 ng/mL NGF and the indicated concentration of TOFA or an equivalent volume of vehicle (DMSO) giving a final concentration of 0.1% DMSO.
At different time points during the treatment, cells were photographed or fixed with 10% formalin. Morphology was examined after four days of treatment with TOFA or vehicle (DMSO). The number of cells beating neurites and average length of neurites were determined with the aid of the Bioquant imaging system. […] However, as depicted in Table 6 below, NGF alone induced a 15% increase in the number of cells bearing neurites and these outgrowths reached a mean length of 20 μm. Treatment with NGF and TOFA increased the percentage of cells beating neurites to 78%. Maximal neurite generation is observed at a concentration of 10 μM TOFA.
Cells were treated with vehicle (0.1% DMSO) or various concentrations of TOFA in the presence of 100 ng/mL NGF for 4 days, and then fixed with 10% formalin. At least eighty cells from eight wells were analyzed in each group. The results are shown as the mean ±SEM. ^a p<0.01, versus vehicle by Dunnetts test.

Molecule: CC[C@@H]1C(=O)OC[C@@H]1Cc1cncn1C [Pilocarpine, pilocarpine, reference compound]
- Catalepsy Duration [1]: 27.3 ± 3.6 s

Molecule: Cc1cccc(Nc2cc(Cl)nc(SCC(=O)O)n2)c1C [WY14643, reference compound]
- Expression mediated by GR/PPAR [2]: activated expression
- Expression mediated by GR/NER (GR/NER chimeric receptor): not by the GR/NER chimera

Molecule: NGF: nerve growth factor
- Mean length of neurite outgrowths (PC12 cells): 20 μm
- Number of cells bearing neurites (PC12 cells): 15%
